The source of these data is ChEMBL document CHEMBL1150859, “Gelliusterols A--D, new acetylenic sterols from a sponge, Gellius species” (J Nat Prod, 2001).

Holding throughout (format): functional, cell-based
Assay [1] relates to HT-29. Nature of the assay: Cytotoxicity against human HT-29 cells.
Assay [2] has as its system P388. Nature of the assay: Cytotoxicity against mouse P388 cells.
Assay [3] has as its system A549. The experiment in a line: Cytotoxicity against human A549 cells.
The test system of assay [4] is DU-145. Nature of the assay: Cytotoxicity against human DU145 cells.
The subject of assay [5] is SK-MEL-28. The experiment in a line: Cytotoxicity against human SK-MEL-28 cells.

Each structure is given as a SMILES string. In brackets after ≈: the same amount, converted by molar mass.

For orientation: IC50 means the concentration that inhibits the measured activity by half. Low values mean greater potency, high ones weaker potency. Consider `CC#CC[C@@H](C)[C@H]1CC[C@H]2[C@@H]3[C@H](O)C=C4C[C@@H](O)CC[C@]4(C)[C@H]3CC[C@]12C` [GELLIUSTEROL A], for which the half-maximal inhibitory concentration (IC50) in assay [1], in assay [2], in assay [3], in assay [4] and in assay [5] was above 1 µg/mL throughout.
Consider `CC#CC[C@@H](C)[C@H]1CC[C@H]2[C@@H]3C(=O)C=C4C[C@@H](O)CC[C@]4(C)[C@H]3CC[C@]12C` [GELLIUSTEROL B], for which the IC50 in assay [1], in assay [2], in assay [3], in assay [4] and in assay [5] was above 1 µg/mL in each case.
In the case of `CC(C)C#CC[C@@H](C)[C@H]1CC[C@H]2[C@@H]3C(=O)C=C4C[C@@H](O)CC[C@]4(C)[C@H]3CC[C@]12C` [GELLIUSTEROL C], the IC50 in assay [1] was 0.5 µg/mL (≈ 1.26 µM); in assay [2], above 1 µg/mL; in assay [3] it was above 1 µg/mL; in assay [4], above 1 µg/mL; in assay [5] it was above 1 µg/mL.
